These results are taken from patent publication US20240300886A1, “ARYLCYCLOHEXYLAMINE DERIVATIVES AND THEIR USE IN THE TREATMENT OF PSYCHIATRIC DISORDERS” (GILGAMESH PHARMACEUTICALS, INC., priority 2021, published 2024).

Where two headings read alike, the source gives them in different places.

Series [1] addresses serotonin transporter (SERT) (Homo sapiens (Human), UniProt P31645). The experiment in a line: SERT competition radioligand binding ([3H]imipramine). As to conditions: Human recombinant (CHO cells), 2.0 nM [3H]imipramine. As to the method: Disclosed compounds were tested for their binding affinity at the serotonin transporter (SERT) using a competition radioligand binding assay (Eurofins Cerep). Assay conditions are described in Table 16 below.

Series [2] can be described thus: Comparative oral pharmacokinetics of 2R, 2S and 2-F-DCK in mice. In kind it is in vivo, C57BL/6 mice. As to conditions: 10 mg/kg po; for half-life: read-out: t1/2 (po). As for the experimental part:
Animals. Male C57BL/6 mice were used in these studies. Aminals were randomly assigned to treatment groups and were fasted for 4 h before dosing.
Drugs. Test compounds were dissolved in a vehicle consisting of normal saline, They were then administered orally (po) at a dose of 10 mg/kg (calculated based on freebase) and at a volume of 10 mL/kg body weight.
Sample Collection and Bioanalysis. Blood samples (approximately 60 μL) were collected under light isoflurane anesthesia (Surgivet®) from the retro orbital plexus at 0.08, 0.25, 0.5, 1, 2, 4, 8, and 24 h (4 animals per time point). Immediately after blood collection, plasma was harvested by centrifugation at 4,000 rpm for 10 min at 4° C. and samples were stored at −70±10° C. until bioanalysis. Following blood collection, animals were immediately sacrificed, the abdominal vena-cava was cut open, and the whole body was perfused from the heart using 10 mL of normal saline, and brain samples were collected from all animals. After isolation, brain samples were rinsed three times in ice-cold normal saline (for 5-10 seconds/rinse using ˜5-10 mL normal saline in disposable petri dish for each rinse) and dried on blotting paper. Brain samples were homogenized using ice-cold phosphate-buffered saline (pH 7.4). Total homogenate volume was three times the tissue weight. All homogenates were stored at −70±10° C. until bioanalysis. For bioanalysis, 25 μL aliquots of plasma/brain study samples or spiked plasma/brain calibration standards were added to individual pre-labeled micro-centrifuge tubes followed by 100 μL of an internal standard solution (glipizide, 500 ng/mL in acetonitrile) except for blanks, where 100 μL of acetonitrile was added. Samples were vortexed for 5 minutes and then centrifuged for 10 minutes at 4,000 rpm at 4° C. Following centrifugation, 100 μL of each clear supernatant was transferred to a 96 well plate and analyzed with a fit-for-purpose LC-MS/MS method, with authentic samples of each analyte used for calibration and identification.
Data Analysis. Pharmacokinetic parameters were estimated using the non-compartmental analysis tool of Phoenix® WinNonlin software (Ver 8.0).

A short description of series [3]: Stability in liver microsomes (Example 21), SD rat. As to conditions: male, pH 7.4, 0.5 mg/mL protein. The class given is in vitro ADME. As to the method:
(§1) General Procedure. Briefly, test compounds (final concentration 1 μM) were incubated in duplicate with liver microsomes from male animals of the indicated species (final protein concentration 0.5 mg/mL) in 50 mM sodium phosphate buffer (pH 7.4) with or without NADPH (1 mM). Total incubation volume was 500 μL. At 0, 5, 15, 30, and 60 min, aliquots of 50 μL were withdrawn, quenched with acetonitrile (150 μL), and analyzed for parent compound remaining using a fit-for-purpose LC-MS/MS method. Intrinsic clearance and half-life were calculated. Clearance values below zero were rounded to zero.

The target of series [4] is recombinant human NMDA receptor (GRIN1/GRIN2B) (Homo sapiens (Human), UniProt Q05586+Q13224). Put plainly: Unblocking kinetics at the NMDA receptor in Xenopus laevis oocytes (two-electrode voltage clamp). The class given is cell-based. As to conditions: compounds applied at 3×IC50, -70 mV, n ≥ 5. As for the experimental part:
Compounds 2R, 2S, and 2-(2-fluorophenyl)-2-(methylamino)cyclohexan-1-one 2-F-DCK were tested for unblocking kinetics at the NMDA receptor in Xenopus laevis oocytes expressing recombinant human NMDA receptor (GRIN1/GRIN2B) (Table 22).
Experimental Procedure. Oocytes were harvested from adult Xenopus laevis and incubated in 96 well plates for two to four days prior to recordings. Plasmids containing cDNA encoding for human NMDA receptor subunits GRIN1 and GRIN2B were transcribed using the mMessage mMachine T7 transcription kit (Ambion, USA). The Roboocyte automated injection system was used for injection of cRNA coding for hNMDA receptor subunits at a concentration of 100 ng/μL per subunit. Oocytes were clamped to a holding potential of −70 mV and induced currents after compound application were sampled at 200 Hz at room temperature. Agonist induced currents were recorded with a two-electrode voltage clamp. To determine the unblocking kinetics, glutamate and glycine (3 and 10 μM, respectively) were applied to the oocytes and the current recorded for 90 s. Then, compounds were applied at 3×IC50 for 120 s and the currents recorded.
(In two-electrode clamp one electrode senses voltage and the other passes current.)

A short description of series [5]: Stability in liver microsomes (Example 21), cynomolgus monkey. In kind it is in vitro ADME. As to conditions: male, pH 7.4, 0.5 mg/mL protein. As to the method: as §1
A short description of series [6]: Stability in liver microsomes (Example 21), CD-1 mouse. As to conditions: male, pH 7.4, CD-1 Mouse liver microsomes, 0.5 mg/mL protein. In kind it is in vitro ADME. As to the method:
as §1
A general note: Liver microsomes are a subcellular fraction often used to study metabolism.

Series [7] is described as follows: Stability in liver microsomes (Example 21), beagle dog. The class given is in vitro ADME. As to conditions: male, pH 7.4, 0.5 mg/mL protein. As to the method:
as §1

Series [8] can be described thus: Stability in liver microsomes (Example 21), Gottingen minipig. The class given is in vitro ADME. As to conditions: male, pH 7.4, 0.5 mg/mL protein. As for the experimental part:
as §1

recombinant human NMDA receptor (GRIN1/GRIN2B), sequence (Q13224 whole entry, looked up, other chains not shown): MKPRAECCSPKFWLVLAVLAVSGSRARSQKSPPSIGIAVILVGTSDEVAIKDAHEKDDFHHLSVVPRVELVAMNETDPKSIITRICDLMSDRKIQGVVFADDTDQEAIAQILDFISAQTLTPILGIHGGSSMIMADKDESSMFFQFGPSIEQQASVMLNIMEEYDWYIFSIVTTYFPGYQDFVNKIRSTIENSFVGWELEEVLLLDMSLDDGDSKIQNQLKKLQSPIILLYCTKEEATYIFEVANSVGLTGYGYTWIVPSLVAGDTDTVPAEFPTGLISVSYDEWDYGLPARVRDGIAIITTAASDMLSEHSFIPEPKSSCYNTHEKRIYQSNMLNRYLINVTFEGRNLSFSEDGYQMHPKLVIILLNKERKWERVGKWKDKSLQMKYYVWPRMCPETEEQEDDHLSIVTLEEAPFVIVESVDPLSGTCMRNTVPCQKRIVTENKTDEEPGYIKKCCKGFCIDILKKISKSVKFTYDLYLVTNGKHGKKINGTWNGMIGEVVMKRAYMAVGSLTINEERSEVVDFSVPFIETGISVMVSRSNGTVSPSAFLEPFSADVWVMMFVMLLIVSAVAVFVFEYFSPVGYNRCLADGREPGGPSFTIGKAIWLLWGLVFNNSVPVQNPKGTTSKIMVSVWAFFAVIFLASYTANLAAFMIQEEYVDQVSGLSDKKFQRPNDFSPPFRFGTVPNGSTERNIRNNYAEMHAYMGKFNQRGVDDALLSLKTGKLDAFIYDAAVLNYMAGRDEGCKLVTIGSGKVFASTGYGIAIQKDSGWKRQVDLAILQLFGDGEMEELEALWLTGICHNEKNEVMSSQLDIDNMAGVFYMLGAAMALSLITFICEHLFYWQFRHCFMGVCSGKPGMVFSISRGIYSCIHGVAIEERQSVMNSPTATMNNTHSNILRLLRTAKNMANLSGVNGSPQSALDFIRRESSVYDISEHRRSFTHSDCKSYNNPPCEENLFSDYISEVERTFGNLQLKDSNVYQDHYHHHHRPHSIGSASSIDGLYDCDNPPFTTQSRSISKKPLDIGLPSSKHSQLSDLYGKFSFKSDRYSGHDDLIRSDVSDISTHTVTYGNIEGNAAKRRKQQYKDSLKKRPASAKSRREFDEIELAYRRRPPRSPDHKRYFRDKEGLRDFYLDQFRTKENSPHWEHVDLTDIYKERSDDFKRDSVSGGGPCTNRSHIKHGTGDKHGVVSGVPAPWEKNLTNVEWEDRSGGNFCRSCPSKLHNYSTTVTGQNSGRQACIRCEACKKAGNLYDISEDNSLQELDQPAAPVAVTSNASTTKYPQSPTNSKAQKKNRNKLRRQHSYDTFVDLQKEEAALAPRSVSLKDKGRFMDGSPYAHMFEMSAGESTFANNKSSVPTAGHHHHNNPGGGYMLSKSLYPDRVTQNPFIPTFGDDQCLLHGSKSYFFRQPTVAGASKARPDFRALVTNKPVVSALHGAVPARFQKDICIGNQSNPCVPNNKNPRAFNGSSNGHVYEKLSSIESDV

On to `CNC1(c2ccccc2F)CCCCC1=O` (stereo not shown) [Compound 2-F-DCK, 2-(2-fluorophenyl)-2-(methylamino)cyclohexan-1-one, reference compound], for which the Ki in series [1] worked out at 40 µM. Further, the Cmax in series [2] (male, C57BL/6, mouse brain) was 1670 ng/g; in series [2] (male, C57BL/6, mouse plasma), 1960 ng/mL. Besides, the half-life was 41 min in series [2] (male, C57BL/6, mouse brain) and 69 min in series [2] (male, C57BL/6, mouse plasma). Further, in series [2] (male, C57BL/6, mouse plasma, read-out: AUC0-last (po) (converted)), the AUC(0-t) is 1150 ng·h/mL. In addition, in series [2] (mouse brain), the “AUC0-last (po)” value amounted to 59119 ng·min/g. For the same compound, the microsomal CLint at 1 μM in series [3] is 111 µL/min/mg; in series [5] it was 212 µL/min/mg; in series [6], 10.9 µL/min/mg; in series [7] it was 30 µL/min/mg; in series [8] it was 56.2 µL/min/mg. Also, the “Unblocking T1/2 ± SEM” value in series [4] amounted to 1.44 ± 0.21 min.

Broadly, the Ki is the equilibrium dissociation constant of an inhibitor or competing ligand from its target. Broadly, the Cmax is the highest concentration seen after dosing. What is called microsomal CLint is the rate of metabolic loss divided by the concentration.
